Experimental data as given in ChEMBL document CHEMBL1201862, “PubChem BioAssay data set” (2004).
Several values for one entry are separate records, joined by “and”; a condition that tells them apart may be missing. Equal values may be shown once. Activity calls are given as the source filed them.

What was measured:
HEK293 [1] = assay: inhibition of NOD1-driven NF-kB reporter – cell-based, luminescence, uHTS, primary screen (AID 1578); assay type: functional; details: Homo sapiens
HEK293 [2] = assay: cells; assay type: functional, cell-based; details: Homo sapiens
[3] = target: T1, Voltage-gated N-type calcium channel alpha-1B subunit/Amyloid beta A4 precursor protein-binding family A member 1 (Homo sapiens, UniProt Q00975+Q02410); assay type: protein assay
T1 sequence (Q00975 whole entry): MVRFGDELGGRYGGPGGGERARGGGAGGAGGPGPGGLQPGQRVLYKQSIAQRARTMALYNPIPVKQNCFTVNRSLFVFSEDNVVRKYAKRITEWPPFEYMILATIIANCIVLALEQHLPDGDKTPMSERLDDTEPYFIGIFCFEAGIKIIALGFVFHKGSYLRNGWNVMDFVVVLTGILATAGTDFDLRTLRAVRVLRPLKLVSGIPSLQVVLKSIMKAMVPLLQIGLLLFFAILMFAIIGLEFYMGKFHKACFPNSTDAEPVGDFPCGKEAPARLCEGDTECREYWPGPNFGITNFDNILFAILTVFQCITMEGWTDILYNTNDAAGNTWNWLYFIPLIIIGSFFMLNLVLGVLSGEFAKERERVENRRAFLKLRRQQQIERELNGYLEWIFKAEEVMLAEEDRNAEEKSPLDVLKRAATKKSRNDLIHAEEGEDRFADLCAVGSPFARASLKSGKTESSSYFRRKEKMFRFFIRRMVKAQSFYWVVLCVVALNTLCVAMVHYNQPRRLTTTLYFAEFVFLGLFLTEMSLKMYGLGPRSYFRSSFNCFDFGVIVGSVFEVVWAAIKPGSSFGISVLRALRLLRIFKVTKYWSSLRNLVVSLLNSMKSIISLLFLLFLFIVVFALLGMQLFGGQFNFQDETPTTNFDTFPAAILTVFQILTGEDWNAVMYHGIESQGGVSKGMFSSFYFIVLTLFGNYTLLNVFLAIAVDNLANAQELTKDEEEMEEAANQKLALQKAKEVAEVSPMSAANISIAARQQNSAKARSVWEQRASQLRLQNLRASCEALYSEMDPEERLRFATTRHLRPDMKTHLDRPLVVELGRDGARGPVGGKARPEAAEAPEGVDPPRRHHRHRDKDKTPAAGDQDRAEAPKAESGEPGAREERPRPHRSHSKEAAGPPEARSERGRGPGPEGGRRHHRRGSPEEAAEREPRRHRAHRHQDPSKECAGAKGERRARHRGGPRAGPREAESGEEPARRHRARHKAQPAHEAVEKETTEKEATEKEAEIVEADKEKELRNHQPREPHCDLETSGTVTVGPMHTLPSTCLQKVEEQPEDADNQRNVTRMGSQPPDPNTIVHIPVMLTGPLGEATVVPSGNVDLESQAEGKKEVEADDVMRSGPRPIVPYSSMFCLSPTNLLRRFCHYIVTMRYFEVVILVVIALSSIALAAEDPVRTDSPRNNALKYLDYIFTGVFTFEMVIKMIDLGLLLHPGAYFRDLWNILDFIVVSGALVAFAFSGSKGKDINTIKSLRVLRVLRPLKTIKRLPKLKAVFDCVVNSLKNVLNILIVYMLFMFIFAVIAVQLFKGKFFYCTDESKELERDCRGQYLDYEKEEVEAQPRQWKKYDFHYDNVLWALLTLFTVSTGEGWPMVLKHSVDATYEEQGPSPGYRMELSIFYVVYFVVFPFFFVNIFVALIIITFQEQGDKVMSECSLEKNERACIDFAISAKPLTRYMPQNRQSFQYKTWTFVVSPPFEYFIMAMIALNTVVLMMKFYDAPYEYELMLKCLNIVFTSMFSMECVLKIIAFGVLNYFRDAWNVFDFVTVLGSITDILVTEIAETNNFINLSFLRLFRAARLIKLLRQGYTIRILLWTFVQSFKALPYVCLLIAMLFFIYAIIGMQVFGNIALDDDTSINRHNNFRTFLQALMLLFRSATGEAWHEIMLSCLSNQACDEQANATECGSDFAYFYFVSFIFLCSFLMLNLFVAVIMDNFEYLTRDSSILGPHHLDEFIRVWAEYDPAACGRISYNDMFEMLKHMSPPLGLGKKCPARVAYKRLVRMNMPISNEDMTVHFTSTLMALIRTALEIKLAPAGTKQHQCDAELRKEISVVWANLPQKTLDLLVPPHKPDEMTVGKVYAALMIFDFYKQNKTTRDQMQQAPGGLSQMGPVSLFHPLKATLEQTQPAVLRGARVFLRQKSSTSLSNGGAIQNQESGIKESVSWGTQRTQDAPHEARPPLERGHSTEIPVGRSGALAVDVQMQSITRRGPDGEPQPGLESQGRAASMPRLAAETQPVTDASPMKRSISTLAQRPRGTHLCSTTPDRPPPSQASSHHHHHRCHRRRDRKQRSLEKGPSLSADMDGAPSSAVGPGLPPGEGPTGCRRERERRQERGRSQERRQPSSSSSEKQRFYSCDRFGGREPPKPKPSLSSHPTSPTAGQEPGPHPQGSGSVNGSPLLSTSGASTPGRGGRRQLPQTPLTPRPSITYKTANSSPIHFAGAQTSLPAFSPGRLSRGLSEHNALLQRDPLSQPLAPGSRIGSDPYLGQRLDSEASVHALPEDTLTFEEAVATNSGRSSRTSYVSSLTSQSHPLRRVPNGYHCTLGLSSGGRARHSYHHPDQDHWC
T1 sequence (Q02410 whole entry): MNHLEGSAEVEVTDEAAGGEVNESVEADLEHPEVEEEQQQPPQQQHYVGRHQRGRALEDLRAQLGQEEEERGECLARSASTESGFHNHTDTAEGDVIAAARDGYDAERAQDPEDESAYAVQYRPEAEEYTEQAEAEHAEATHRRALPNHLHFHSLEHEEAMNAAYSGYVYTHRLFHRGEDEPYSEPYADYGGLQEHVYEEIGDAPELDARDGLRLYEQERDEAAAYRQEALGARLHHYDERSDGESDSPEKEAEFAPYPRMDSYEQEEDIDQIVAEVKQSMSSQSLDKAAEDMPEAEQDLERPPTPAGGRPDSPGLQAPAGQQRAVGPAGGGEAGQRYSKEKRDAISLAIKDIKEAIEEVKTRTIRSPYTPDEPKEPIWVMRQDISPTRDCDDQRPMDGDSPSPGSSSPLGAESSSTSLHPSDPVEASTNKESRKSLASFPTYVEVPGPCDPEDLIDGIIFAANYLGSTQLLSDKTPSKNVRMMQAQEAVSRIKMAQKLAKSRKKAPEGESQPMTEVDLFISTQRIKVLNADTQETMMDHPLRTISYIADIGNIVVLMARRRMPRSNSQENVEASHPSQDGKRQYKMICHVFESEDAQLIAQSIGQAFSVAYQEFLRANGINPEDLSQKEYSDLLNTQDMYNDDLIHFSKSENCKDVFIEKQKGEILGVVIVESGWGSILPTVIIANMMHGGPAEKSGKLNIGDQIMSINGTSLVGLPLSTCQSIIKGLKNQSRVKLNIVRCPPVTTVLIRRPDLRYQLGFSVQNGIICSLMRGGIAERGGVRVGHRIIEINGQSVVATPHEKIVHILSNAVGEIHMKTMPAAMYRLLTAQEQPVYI

HEK293 [4] = assay: cells; assay type: functional, cell-based; details: Homo sapiens; remark: listed apart in the source
HEK293 [5] = assay: NOD2 signaling inhibitors in MDP-stimulated cells, cell-based, uHTS, luminescence (AID 2001); assay type: functional; details: Homo sapiens
[6] = target: T1, Voltage-gated N-type calcium channel alpha-1B subunit/Amyloid beta A4 precursor protein-binding family A member 1; assay type: protein assay; remark: listed apart in the source
[7] = target: T2, Carboxy-terminal domain RNA polymerase II polypeptide A small phosphatase 1 (Homo sapiens, UniProt Q9GZU7); assay: CTDSP1 inhibitors, concentration-response, biochemical, absorbance readout, ultra-high-throughput screen actives (AID 540297); assay type: functional
T2 sequence (Q9GZU7 whole entry): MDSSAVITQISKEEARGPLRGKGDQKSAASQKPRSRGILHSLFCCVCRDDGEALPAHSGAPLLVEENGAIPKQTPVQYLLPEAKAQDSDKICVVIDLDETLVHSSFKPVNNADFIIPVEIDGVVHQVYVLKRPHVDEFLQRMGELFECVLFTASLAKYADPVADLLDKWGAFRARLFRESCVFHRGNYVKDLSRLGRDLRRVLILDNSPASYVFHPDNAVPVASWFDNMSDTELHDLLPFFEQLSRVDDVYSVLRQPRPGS

[8] = target: Nucleotide-binding oligomerization domain-containing protein 2 (Homo sapiens, UniProt Q9HC29); assay: inhibition of NOD2-driven NF-kB reporter – cell-based, luminescence, uHTS, HEK293 (AID 1566); assay type: functional
Tumor necrosis factor = Tumor necrosis factor (Homo sapiens, UniProt P01375); assay: analog potency on TNFa NF-kB signaling – cell-based, revised, SAR follow-up (AID 2337); assay type: functional
Sequence of Tumor necrosis factor (P01375 whole entry, the tested form may be a part): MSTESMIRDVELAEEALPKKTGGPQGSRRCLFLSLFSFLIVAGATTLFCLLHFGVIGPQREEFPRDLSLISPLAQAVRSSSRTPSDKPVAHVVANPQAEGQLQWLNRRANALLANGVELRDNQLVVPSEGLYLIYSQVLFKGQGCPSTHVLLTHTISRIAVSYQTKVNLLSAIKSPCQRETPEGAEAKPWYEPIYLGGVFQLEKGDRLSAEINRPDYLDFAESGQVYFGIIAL

[9] = target: Nucleotide-binding oligomerization domain-containing protein 1 (Homo sapiens, UniProt Q9Y239); assay: blockers of NOD1 pathway activity – revised, SAR follow-up (AID 2333); assay type: functional
[10] = target: T3, Mannose-6-phosphate isomerase (Homo sapiens, UniProt P34949); assay: Confirmation of compounds inhibiting phosphomannose isomerase (PMI) via a fluorescence intensity assay using a high concentration of mannose 6-phosphate. [Related pubchem assays (depositor defined):AID1209, AID1220, AID1545, AID1553, AID1620]
T3 sequence (P34949 whole entry): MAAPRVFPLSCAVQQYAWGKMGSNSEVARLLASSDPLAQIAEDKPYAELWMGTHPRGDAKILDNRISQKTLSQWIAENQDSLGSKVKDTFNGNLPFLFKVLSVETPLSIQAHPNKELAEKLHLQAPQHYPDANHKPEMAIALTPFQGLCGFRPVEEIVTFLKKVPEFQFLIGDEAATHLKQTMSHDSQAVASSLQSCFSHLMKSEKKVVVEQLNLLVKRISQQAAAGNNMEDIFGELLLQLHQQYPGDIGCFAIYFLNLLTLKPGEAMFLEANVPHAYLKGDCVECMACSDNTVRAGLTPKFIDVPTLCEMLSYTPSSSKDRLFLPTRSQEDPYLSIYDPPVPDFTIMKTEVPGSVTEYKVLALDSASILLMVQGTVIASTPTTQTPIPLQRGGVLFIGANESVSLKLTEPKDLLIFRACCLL

Large T antigen = Large T antigen (Simian virus 40, UniProt P03070); assay type: functional, Betapolyomavirus macacae;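 further: Confirmatory-stage PubChem screen for compounds that inhibit SV40 T antigen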
[11] = target: T3, Mannose-6-phosphate isomerase; assay: MPI enzyme activity inhibition – biochemical, fluorescence intensity, coupled assay, primary screen (AID 1209)
[12] = target: T3, Mannose-6-phosphate isomerase; assay: MPI inhibition at elevated mannose 6-phosphate – biochemical, fluorescence intensity, high mannose 6-phosphate, primary screen (AID 1220)
[13] = target: T3, Mannose-6-phosphate isomerase; assay: phosphomannose isomerase inhibition – biochemical, fluorescence intensity, confirmation (AID 1535)
Hexokinase = target: T4, Hexokinase (Trypanosoma brucei, UniProt Q38C41); assay: Confirmation assay for inhibitors of Trypanosoma brucei hexokinase 1-Analogue-first series. [Related pubchem assays (depositor defined):AID1430, AID1632, AID2516, AID2560, AID2579, AID2600, AID449725, AID492951]; assay type: functional
T4 sequence (Q38C41 whole entry): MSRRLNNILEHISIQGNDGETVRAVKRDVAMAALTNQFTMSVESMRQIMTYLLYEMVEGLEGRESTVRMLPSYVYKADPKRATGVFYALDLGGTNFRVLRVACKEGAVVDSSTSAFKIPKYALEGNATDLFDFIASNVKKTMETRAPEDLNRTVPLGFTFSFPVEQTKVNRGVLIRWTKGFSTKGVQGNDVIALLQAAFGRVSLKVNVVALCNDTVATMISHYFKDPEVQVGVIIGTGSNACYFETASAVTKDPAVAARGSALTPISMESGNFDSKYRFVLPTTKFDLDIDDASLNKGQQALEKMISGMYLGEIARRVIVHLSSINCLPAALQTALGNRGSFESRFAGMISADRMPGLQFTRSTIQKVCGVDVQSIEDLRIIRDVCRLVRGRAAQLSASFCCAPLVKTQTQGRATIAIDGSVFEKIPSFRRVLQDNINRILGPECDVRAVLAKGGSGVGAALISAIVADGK

[14] = target: Glucose-6-phosphate 1-dehydrogenase (Homo sapiens, UniProt P11413); assay: inhibition of Homo sapiens G6PD, dose series – biochemical, fluorescence, selectivity assay for P. falciparum G6PD inhibitor project, dose response (AID 504792); assay type: functional
Phosphomannomutase 2 = Phosphomannomutase 2 (Homo sapiens, UniProt O15305); assay: Counter screen SAR assay for PMM2 inhibitors via a fluorescence intensity assay. [Related pubchem assays (depositor defined):AID1545, AID1574]
Sequence of Phosphomannomutase 2 (O15305 whole entry): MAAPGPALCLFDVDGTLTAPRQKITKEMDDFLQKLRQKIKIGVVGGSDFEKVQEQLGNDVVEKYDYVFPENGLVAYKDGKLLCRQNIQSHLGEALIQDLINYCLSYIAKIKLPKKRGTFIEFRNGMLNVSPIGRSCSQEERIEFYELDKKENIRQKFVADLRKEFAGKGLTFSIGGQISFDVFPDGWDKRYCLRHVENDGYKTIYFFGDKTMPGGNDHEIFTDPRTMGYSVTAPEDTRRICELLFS

[15] = target: Phosphoethanolamine/phosphocholine phosphatase (Homo sapiens, UniProt Q8TCT1); assay: SAR assay for compounds that inhibit PHOSPHO1. [Related pubchem assays (depositor defined):AID1545, AID1565, AID1574]
Sequence of Phosphoethanolamine/phosphocholine phosphatase (Q8TCT1 whole entry): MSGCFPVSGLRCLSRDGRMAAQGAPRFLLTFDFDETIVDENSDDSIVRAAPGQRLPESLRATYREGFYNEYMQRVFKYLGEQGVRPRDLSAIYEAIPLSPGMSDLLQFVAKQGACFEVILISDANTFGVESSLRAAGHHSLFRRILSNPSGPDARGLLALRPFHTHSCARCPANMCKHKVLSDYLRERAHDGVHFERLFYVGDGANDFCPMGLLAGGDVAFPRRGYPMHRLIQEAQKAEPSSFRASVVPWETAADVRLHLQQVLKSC

[16] = target: Eukaryotic translation initiation factor 4E (Mus musculus, UniProt P63073); assay: blockers of eIF4G binding by eIF4E – biochemical, TR-FRET, dose response (AID 855); assay type: functional;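 further: potency for disrupting eIF4E binding to eIF4GI seen as loss of FRET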
Sequence of Eukaryotic translation initiation factor 4E (P63073 whole entry): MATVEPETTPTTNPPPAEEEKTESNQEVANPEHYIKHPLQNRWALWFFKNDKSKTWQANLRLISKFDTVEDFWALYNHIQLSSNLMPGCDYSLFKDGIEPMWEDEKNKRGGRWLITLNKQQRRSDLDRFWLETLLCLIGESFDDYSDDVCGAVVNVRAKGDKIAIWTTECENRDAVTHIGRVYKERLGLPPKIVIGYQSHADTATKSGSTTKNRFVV

[17] = target: DNA dC->dU-editing enzyme APOBEC-3G (Homo sapiens, UniProt Q9HC16); assay: Dose Response confirmation of small molecule APOBEC3G DNA Deaminase Inhibitors via a fluorescence-based single-stranded DNA deaminase assay. [Related pubchem assays (depositor defined):AID493012, AID493028]; assay type: functional
[18] = target: T5, Mitochondrial peptide methionine sulfoxide reductase (Bos taurus, UniProt P54149); assay: Absorbance-based biochemical high throughput dose response assay for activators of Methionine sulfoxide reductase A (MsrA).; assay type: functional
T5 sequence (P54149 whole entry): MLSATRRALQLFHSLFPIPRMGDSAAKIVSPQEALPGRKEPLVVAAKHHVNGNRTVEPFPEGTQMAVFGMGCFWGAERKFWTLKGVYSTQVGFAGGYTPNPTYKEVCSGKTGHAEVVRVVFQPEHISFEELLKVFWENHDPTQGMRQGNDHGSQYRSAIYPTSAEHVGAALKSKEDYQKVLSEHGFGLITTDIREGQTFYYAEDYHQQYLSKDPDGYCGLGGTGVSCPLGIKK

[19] = target: Type-1 angiotensin II receptor (Homo sapiens, UniProt P30556); assay: agonist activity at AGTR1 – cell-based, uHTS hits, selectivity assay for APJ receptor agonist project, dose response (AID 488865); assay type: functional;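 further: beta-arrestin recruitment to AT1 measured by enzyme fragment complementation luminescence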
Saccharomyces cerevisiae = assay: S. cerevisiae Caspase-1/ASC signal blockers IC50, NALP1 inhibitor project selectivity test (AID 488863); assay type: functional, organism-based
[20] = target: NACHT, LRR and PYD domains-containing protein 1 (Homo sapiens, UniProt Q9C000); assay: NALP1 inhibitors in yeast, dose response, luminescent (AID 488860); assay type: functional
[21] = target: T6, Oxysterols receptor LXR-beta (Homo sapiens, UniProt P55055); assay type: functional, cell-based;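 further: Cell-based luminescence dose-response assay of agonist activity at LXR, run as a confirmatory counterscreen to a daf-12 agonist screen; HEK293 cells with Gal4-LXR fusion and GAL4-driven luciferase reporter; agonist potency from rising luciferase signal of a Gal4-LXR reporter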
T6 sequence (P55055 whole entry): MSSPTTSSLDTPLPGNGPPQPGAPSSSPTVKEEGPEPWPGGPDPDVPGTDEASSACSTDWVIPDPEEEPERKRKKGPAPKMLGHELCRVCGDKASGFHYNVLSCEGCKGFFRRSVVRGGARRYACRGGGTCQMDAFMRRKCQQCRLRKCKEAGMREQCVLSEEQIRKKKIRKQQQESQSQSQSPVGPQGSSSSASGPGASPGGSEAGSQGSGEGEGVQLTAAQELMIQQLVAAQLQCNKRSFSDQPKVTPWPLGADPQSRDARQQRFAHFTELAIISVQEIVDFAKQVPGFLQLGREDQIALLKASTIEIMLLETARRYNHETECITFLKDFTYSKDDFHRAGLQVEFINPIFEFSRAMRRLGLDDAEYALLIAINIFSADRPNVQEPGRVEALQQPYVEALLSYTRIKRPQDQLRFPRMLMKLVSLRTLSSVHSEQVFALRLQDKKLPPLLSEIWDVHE

[22] = decrease of insulin promoter-GFP reporter – imaging, high-content screening, mouse beta cells (AID 1628); assay type: functional; details: MIN6
[23] = MIN6 cell viability loss – mouse insulinoma, cytotoxicity control, dose response (AID 2122); assay type: functional;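 further: confirmatory high-throughput counterscreen run to flag cytotoxic compounds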
[24] = Trypanosoma cruzi growth suppression in host cells – NIH3T3 host cells, beta-gal luminescence, confirmation (AID 2044); assay type: functional, cell-based;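 further: intracellular parasites grown in NIH/3T3 mouse fibroblasts as host cells; luminescent beta-galactosidase reporter signal from transgenic T. cruzi replicating inside host cells; inhibitors lower the luminescence signal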
[25] = NIH3T3 cell viability loss – ATP luminescence, mouse fibroblasts, counter-screen, dose response (AID 2010); assay type: functional, cell-based;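 further: cells exposed to compound for about 90 hours before reading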
[26] = RanGTP/importin-beta interaction disruptors – biochemical, plate reader, dry powder, dose response (AID 493048); set-up: species or system Homo sapiens
Importin subunit alpha-1 = Importin subunit alpha-1 (Homo sapiens, UniProt P52292); assay: compounds lowering YIC probe YFP/CFP ratio – biochemical, dry powder samples, FRET, counter-screen for RanGTP-importin-beta inhibitor project, dose response (AID 493094); assay type: functional
[27] = target: T7, Runt-related transcription factor 1/Core-binding factor subunit beta (Homo sapiens, UniProt Q01196+Q13951); assay: disruptors of Runt domain/CBFb-SMMHC interaction – biochemical, FRET, Cerulean-Runt, Venus-CBFb-SMMHC, uHTS, […] (AID 1434); assay type: protein assay
T7 sequence (Q01196 whole entry, the tested form may be a part): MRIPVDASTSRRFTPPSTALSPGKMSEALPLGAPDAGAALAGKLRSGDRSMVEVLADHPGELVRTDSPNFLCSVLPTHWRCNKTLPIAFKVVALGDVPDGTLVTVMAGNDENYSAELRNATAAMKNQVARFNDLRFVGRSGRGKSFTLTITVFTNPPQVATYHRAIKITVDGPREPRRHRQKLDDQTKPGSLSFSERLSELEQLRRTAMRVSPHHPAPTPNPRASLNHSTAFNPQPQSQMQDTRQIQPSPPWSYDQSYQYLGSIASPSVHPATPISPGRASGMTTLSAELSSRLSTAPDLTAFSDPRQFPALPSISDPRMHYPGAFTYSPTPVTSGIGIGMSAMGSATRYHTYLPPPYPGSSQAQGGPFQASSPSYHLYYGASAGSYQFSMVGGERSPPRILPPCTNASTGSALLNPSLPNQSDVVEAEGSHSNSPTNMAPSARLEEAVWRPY
T7 sequence (Q13951 whole entry, the tested form may be a part): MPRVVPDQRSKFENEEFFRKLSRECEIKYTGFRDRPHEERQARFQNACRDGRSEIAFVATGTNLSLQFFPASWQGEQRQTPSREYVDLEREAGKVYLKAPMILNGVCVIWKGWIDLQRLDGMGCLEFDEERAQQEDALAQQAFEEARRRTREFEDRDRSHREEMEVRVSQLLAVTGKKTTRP

[28] = target: T7, Runt-related transcription factor 1/Core-binding factor subunit beta; assay: Runt domain/CBFb-SMMHC interaction disruptors – biochemical, TR-FRET (AID 1438); assay type: protein assay
[29] = target: Voltage-dependent T-type calcium channel subunit alpha-1H (Homo sapiens, UniProt O95180); assay: human CACNA1H calcium influx blockade – cell-based, synthetic library set 1, calcium flux (AID 493022); assay type: functional
[30] = target: T8, Tyrosine-protein phosphatase non-receptor type 7 (Homo sapiens, UniProt P35236); assay: redox-active compounds inhibiting HePTP phosphatase – biochemical, fluorescence, mechanism study (AID 2068); assay type: functional
T8 sequence (P35236 whole entry): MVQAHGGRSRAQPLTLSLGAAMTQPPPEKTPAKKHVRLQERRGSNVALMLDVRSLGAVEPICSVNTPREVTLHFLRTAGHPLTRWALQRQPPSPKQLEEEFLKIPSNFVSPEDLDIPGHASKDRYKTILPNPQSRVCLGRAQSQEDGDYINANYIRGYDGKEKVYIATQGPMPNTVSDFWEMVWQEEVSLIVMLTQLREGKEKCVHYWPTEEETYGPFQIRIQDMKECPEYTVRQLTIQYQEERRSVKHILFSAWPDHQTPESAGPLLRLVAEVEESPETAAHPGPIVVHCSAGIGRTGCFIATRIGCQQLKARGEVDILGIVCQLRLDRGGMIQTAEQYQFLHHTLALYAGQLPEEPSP

COc1ccc2cc3c(N)nn(C(=O)c4ccc(Cl)c([N+](=O)[O-])c4)c3nc2c1
inactive: IC50 (HEK293 [4]) > 20 µM
active: EC50 (HEK293 [1]) 3.5 µM | IC50 (HEK293 [2]) 1.71 µM | IC50 [3] 16.1 µM | IC50 (HEK293 [5]) 2.29 µM | IC50 [6] 28.7 µM | IC50 [7] 1.72 µM

O=C(CSc1nc2scc(-c3ccccc3)c2c(=O)[nH]1)Nc1ccccc1
active: EC50 [8] 950 nM | IC50 (Tumor necrosis factor) 1.96 µM | IC50 [9] 2.83 µM

CN(C)S(=O)(=O)c1cccc(-n2sc3ccccc3c2=O)c1
active: IC50 [10] 16.4 µM | IC50 (Large T antigen) 13.3 µM | IC50 [11] 5.25 µM | IC50 [12] 11.7 µM | IC50 [13] 2.79 µM and 7.06 µM | IC50 (Hexokinase) 7.63 µM | IC50 [14] 12.4 µM | IC50 (Phosphomannomutase 2) 13.5 µM and 12.9 µM | IC50 [15] 495 nM and 457 nM | IC50 [16] 13 µM | IC50 [17] 9.11 µM
inactive: EC50 [18] > 104 µM

NC(=NOS(=O)(=O)c1ccc2ccccc2c1)c1ccncc1
inactive: EC50 [19] > 100 µM

CSc1nnc(-c2cc3c(s2)-c2ccccc2CC3)o1
inactive: IC50 (Saccharomyces cerevisiae) > 100 µM | IC50 [20] > 100 µM | EC50 [21] > 67.5 µM | EC50 (cells) > 67.5 µM

CCOCCCn1c(=N)c(C(=O)NCc2ccc3c(c2)OCO3)cc2c(=O)n3cccc(C)c3nc21
active: IC50 [22] 1.54 µM | IC50 [23] 5.17 µM | EC50 [24] 1.27 µM | AC50 [26] 227 µM | AC50 (Importin subunit alpha-1) 135 µM
> 60 µM (not active): EC50 [25]

COc1ccc(OC)c(S(=O)(=O)N(C(C)=O)c2ccc3oc(=O)sc3c2)c1
inactive: IC50 [27] > 100 µM | IC50 [28] > 100 µM

CC(Oc1ccccc1)C(=O)Nc1nnc(-c2ccc3ccccc3c2)o1 (configuration not stated)
active: EC50 [29] 2.7 µM

O=C(Nc1ccc2nc(-c3ccco3)c(-c3ccco3)nc2c1)Nc1cccc2ccccc12
active: IC50 [30] 1.26 µM
